# Measurements as given in patent US20250319292A1, “MICRONEEDLES AND METHODS FOR TREATING THE SKIN” (THE BRIGHAM AND WOMEN'S HOSPITAL, INC., priority 2021, published 2025).
# How the values were obtained:
# [1] = test system: THP-1 cells; assay: Cytotoxicity studies of digestion media (TCEP); assay type: cell-based; settings: TCEP 0.1 mM to 100 mM, 10 minutes
# Description: Human monocyte THP-1 cells (ATTC) were maintained in RPMI 1640 supplemented with 10% FBS, 2 mM L-glutamine, 25 mM HEPES, 100 μg/mL Normocin™ (InvivoGen) and 100 U/mL penicillin and 100 μg/mL streptomycin. Cell lines were maintained in a humidified incubator at 37° C., 5% CO2.
# THP-1 cells were incubated with different concentrations of digestion media (TCEP solution in supplemented media), ranging from 0.1 mM to 100 mM, for 10 minutes. Thereafter, digestion media was removed, and cells were stained using the LIVE/DEAD™ fixable Violet Dead Cell Stain Kit (Thermo Fisher Scientific, USA) following the manufacturer's guidelines. Dead cells were analyzed by flow cytometry using a BD LSRFortessa™ flow cytometer.
# [2] = test system: Tregs; assay: CCL22-dependent trans-well migration assay; assay type: cell-based, C57BL/6 mice; settings: 0, 10 and 100 ng/ml, 3 hours, CD3+ T cells
# Description: Recruitment of Tregs as a function of CCL22 was assessed in a 24-well plate containing a 5 μm-pore polycarbonate Transwell® filter system (Costar Transwell® permeable support #3421). MNs loaded with incremental amounts of CCL22 ([…] and 100 ng) or equivalent dose of soluble CCL22 were added in the receiver wells and incubated at 37° C. for 1 hour. 5×10^5 CD3^+ T cells were magnetically isolated from C57BL/6 mice using mouse T cell isolation kit (EasySep™, #19851) and resuspended in full culture media and added to the top wells. Cells were then incubated at 37° C. and 5% CO2 for 3 hours. Cells in the receiver well were then harvested and stained with Fixed viability dye, anti-CD3, CD4, CD25, and Foxp3 antibodies and analyzed by flow cytometry.
# Next, the biological activity of chemokines when loaded in the MNs was examined. Specifically, the ability of CCL22 to mediate Tregs recruitment when delivered using the MN platform through a trans-well migration assay was studied. Briefly, ranging concentrations of CCL22, either MN-doped or soluble, were incubated with CD3^+ T cells, and the number of migrated Tregs was analyzed after 3 hours of incubation by flow cytometry. […] This can stem from the maintenance of a higher gradient of CCL22 when released from the MNs compared to soluble CCL22 (FIG. 3C).
Molecule,cell viability [1],Tregs migration as a function of CCL22 concentration [2]
"O=C(O)CCP(CCC(=O)O)CCC(=O)O [TCEP, tris (2-carboxyethyl) phosphine]",highly biocompatible and did not affect cell viability,–
"soluble CCL22: C-C motif chemokine 22 added in solution, from PeproTech (protein, UniProt O00626 25-93, looked up) C-C motif chemokine 22: GPYGANMEDSVCCRDYVRYRLPLRVVKHFYWTSDSCPRPGVVLLTFRDKEICADPRVPWVKMILNKLSQ",–,dose-dependent increase of Tregs migration
